Reference: patent US10897906B2, “Fungicide for the treatment of fungal pathogens causing mycotoxins” (priority 2015, dated 2021)

Legend:
[1] = Surface tension of aqueous bicarbonate spray solution (Kruss DSA30); type: physicochemical; details: aqueous solutions at typical in-use concentrations (2-5% active ingredient)
Procedure: (§1) In this application surface tension and contact angle were measured using a Kruss DSA30 system, […] was measured using a pendant drop technique with analysis carried out after application of the Laplace-Young equation, […] was measured following application of a droplet on to an artificial hydrophobic (Para-film) surface. The particle sizes of the crystals of the bicarbonate salt were determined by microscopy following the application of Motic Advanced Imaging Software.

[2] = Contact angle of aqueous bicarbonate spray solution (Kruss DSA30, hydrophobic Para-film surface); type: physicochemical; details: aqueous solutions at typical in-use concentrations (2-5% active ingredient)
Procedure: as §1

O=C([O-])O.[K+] [potassium bicarbonate]
Surface tension compared with water [1]: virtually identical to that achieved with water alone
Contact angle with the plant tissues compared with water [2]: virtually identical to that achieved with water alone
